According to the NIST ThermoML archive (doi:10.1021/je050305z):

Settings: Gas, Hot wire method

COC [dimethyl ether]
Settings	thermal conductivity [W/m/K]
355.58 K, 1777.8 kPa	0.02592
355.64 K, 504.3 kPa	0.02468
355.66 K, 2226 kPa	0.02632
355.69 K, 1497.3 kPa	0.02553
355.74 K, 356.1 kPa	0.02462
355.82 K, 1194.9 kPa	0.02508
355.89 K, 156.1 kPa	0.02441
355.97 K, 872.5 kPa	0.02489
356.09 K, 1777.8 kPa	0.02597
356.1 K, 701.6 kPa	0.02489
356.2 K, 504.3 kPa	0.02488
356.21 K, 1497.3 kPa	0.02554
356.31 K, 356.1 kPa	0.02481
356.38 K, 1194.9 kPa	0.02516
356.52 K, 156.1 kPa	0.02447
356.57 K, 872.5 kPa	0.02502
356.72 K, 701.6 kPa	0.0249
356.86 K, 504.3 kPa	0.02485
356.98 K, 356.1 kPa	0.02475
357.23 K, 156.1 kPa	0.02456
364.94 K, 2198.1 kPa	0.02782
365.09 K, 1801.9 kPa	0.02689
365.2 K, 1500.1 kPa	0.0265
365.3 K, 1202 kPa	0.02622
365.42 K, 906.2 kPa	0.02606
365.51 K, 697.2 kPa	0.02598
365.51 K, 2198.1 kPa	0.02789
365.59 K, 481.6 kPa	0.026
365.68 K, 346.3 kPa	0.02589
365.7 K, 1801.9 kPa	0.0271
365.81 K, 1500.1 kPa	0.02669
365.86 K, 156.4 kPa	0.02596
365.94 K, 1202 kPa	0.02635
365.99 K, 2198.1 kPa	0.02796
366.1 K, 906.2 kPa	0.02615
366.2 K, 697.2 kPa	0.02609
366.23 K, 1801.9 kPa	0.02723
366.31 K, 481.6 kPa	0.02599
366.35 K, 1500.1 kPa	0.02675
366.42 K, 346.3 kPa	0.02597
366.52 K, 1202 kPa	0.02642
366.66 K, 156.4 kPa	0.02591
366.7 K, 906.2 kPa	0.02622
366.82 K, 697.2 kPa	0.02608
366.96 K, 481.6 kPa	0.02612
367.09 K, 346.3 kPa	0.02604
367.38 K, 156.4 kPa	0.02597
374.95 K, 2704.4 kPa	0.03029
375.17 K, 2197.8 kPa	0.02893
375.29 K, 1766.8 kPa	0.02826
375.36 K, 1499.6 kPa	0.02784
375.46 K, 892.8 kPa	0.02733
375.49 K, 1198.6 kPa	0.02756
375.49 K, 2704.4 kPa	0.03041
375.54 K, 707.6 kPa	0.02738
375.63 K, 507.4 kPa	0.02734
375.72 K, 354 kPa	0.02727
375.76 K, 2197.8 kPa	0.0291
375.9 K, 152.4 kPa	0.02713
375.92 K, 1766.8 kPa	0.02831
375.95 K, 2704.4 kPa	0.03051
375.97 K, 1499.6 kPa	0.02793
376.14 K, 892.8 kPa	0.02756
376.17 K, 1198.6 kPa	0.0277
376.22 K, 707.6 kPa	0.02749
376.28 K, 2197.8 kPa	0.02917
376.35 K, 507.4 kPa	0.02737
376.45 K, 354 kPa	0.02739
376.46 K, 1766.8 kPa	0.02837
376.56 K, 1499.6 kPa	0.02791
376.68 K, 152.4 kPa	0.02726
376.72 K, 892.8 kPa	0.02758
376.75 K, 1198.6 kPa	0.02773
376.81 K, 707.6 kPa	0.02751
376.96 K, 507.4 kPa	0.0274
377.08 K, 354 kPa	0.02742
377.4 K, 152.4 kPa	0.0273
384.94 K, 3297.7 kPa	0.03329
385.16 K, 2700.7 kPa	0.03115
385.35 K, 2197 kPa	0.02995
385.44 K, 3297.7 kPa	0.03354
385.48 K, 1805.7 kPa	0.02946
385.56 K, 1500.6 kPa	0.02919
385.66 K, 1201.3 kPa	0.02897
385.74 K, 2700.7 kPa	0.03126
385.77 K, 899.9 kPa	0.02885
385.93 K, 503.9 kPa	0.02857
385.95 K, 703 kPa	0.0288
385.98 K, 2197 kPa	0.0301
386 K, 3297.7 kPa	0.03358
386.01 K, 355.6 kPa	0.02861
386.13 K, 1805.7 kPa	0.02959
386.2 K, 156.6 kPa	0.02852
386.22 K, 1500.6 kPa	0.02926
386.33 K, 1201.3 kPa	0.02917
386.38 K, 2700.7 kPa	0.03136
386.48 K, 899.9 kPa	0.02895
386.5 K, 2197 kPa	0.03017
386.6 K, 703 kPa	0.02886
386.65 K, 503.9 kPa	0.02873
386.65 K, 1805.7 kPa	0.02964
386.74 K, 1500.6 kPa	0.02936
386.79 K, 355.6 kPa	0.02867
386.93 K, 1201.3 kPa	0.02916
387.03 K, 156.6 kPa	0.02858
387.08 K, 899.9 kPa	0.02903
387.21 K, 703 kPa	0.02901
387.32 K, 503.9 kPa	0.02881
387.44 K, 355.6 kPa	0.02881
387.74 K, 156.6 kPa	0.02859
